From patent publication US8632982B2, “Biomarkers for liver injury” (Institute for Systems Biology, priority 2009, dated 2014)

Test system: C57BL6/J mice
Assay: Murine model: liver damage induced with acetaminophen, serum markers by SPR antibody array and Western blot
Format: in vivo
Conditions: male C57BL6/J mice, 300 mg/kg intraperitoneally
Protocol: The effectiveness of various proteins as markers was tested by inducing liver damage in mice using acetaminophen and then assessing serum for various proteins by surface plasmon resonance (SPR) detection of complex formation with the relevant antibody and confirmed by Western blot. The known marker, AST, was used as a control.
Nine week old male C57BL6/J mice were fasted for 24 hours and then administered 300 mg/kg acetaminophen intraperitoneally. The mice were euthanized with CO2 and whole blood was collected via cardiac puncture at various time intervals. The whole blood was incubated at 4° C. for 12 hours and centrifuged at 2,000 g for 10 minutes to obtain serum which was stored at −80° C. and then analyzed by SPR antibody array as described above and validated by Western blot. (The concentration of the known marker serum […] (AST) was determined by enzymatic assay.)

CC(=O)Nc1ccc(O)cc1 [acetaminophen]
plasma levels of plasminogen and RBP4 (Western blot, FIG. 3) (12-24 hours): decrease | serum levels of control marker AST (enzymatic assay) (same time as the novel markers): corresponding increase | plasma level of the 12 markers whose level increases in the event of liver injury (Western blot, FIG. 3) (fasted 24 hours, after 12-24 hours, after which the levels declined): elevated levels
